Like-named read-outs stand apart in the source and are kept apart here.
Assays:
[1] = NGI cascade impactor test, single-use passive dry powder inhaler ([…], Aespira); assay type: physicochemical; conditions: NGI approx. 100 L/min for 2.4 seconds
Experimental: Delivery of cromolyn by a single-use passive dry powder inhaler device was assessed. The passive inhaler device included an active particle dispersion mechanism ([…]) involving breath-driven beating of a mesh package containing the powder to be delivered. A blend containing disodium cromoglycate (DSCG) (Cambrex) and Lactohale LH300 lactose (Friesland Foods Domo) was prepared by blending in an Alpine Picoline high shear mixer (module Picomix) (Hosokawa Alpine, Augsburg, Germany) at a speed of 4000 rpm for 3 minutes. The blend contained 80:20 (wt/wt.) DSCG:lactose. Neat DSCG also was tested.

[2] = NGI cascade impactor test, active dry powder inhaler with piezoelectric vibrator; assay type: physicochemical; conditions: NGI approx. 30 L/min for 2 seconds
From the text: The inhaler device included injection molded plastic components, electronics, a battery, and drug filled blisters. The inhaler included a lever arm, upon actuation of which the blister was placed in contact with a piezoelectric vibrator within the device and then pierced by needles. The inhaler also included an airflow sensor which automatically turned on the piezoelectric vibrator after a minimum inspiratory flow rate was exceeded. Activation of the piezoelectric vibrator […] powder particles and aerosolized them out of the blister and into the inspiratory airstream. The inhaler included visual feedback at the start of dosing and as confirmation of successful completion of dosing, thereby facilitating improved patient compliance. […] A blend containing disodium cromoglycate (DSCG) (Cambrex) and lactose monohydrate (DFE Pharma) (grade: lactohale LH201) was prepared by blending at a speed of 150 rpm for 15 minutes. The blend contained 60:40 (wt/wt.) DSCG:lactose. Neat DSCG also was tested.

[3] = NGI impactor fractions with AZHALER dry powder inhaler; assay type: physicochemical; conditions: per 17.1 mg of API
From the text: AZHALER. […] It is a single-dose device used to deliver the inhalation powder to the patient's lung in form of an aerosol. The inhaler consists of a container, a valve, and a mouthpiece. In this study the low resistance model (80 L airflow resistance) was used. These device reaches a pressure drop of 4 kPa at c.80 L/min, and is suitable for use on a wide range of patient population i.e. including elderly, children and patients with severe respiratory impairment

[4] = Phase 1 pharmacokinetic study of inhaled cromolyn, plasma; assay type: in vivo, human; conditions: for Tmax / Vd/F / AUC(0-inf) / Cmax / half-life: human; for half-life: read-out: apparent t1/2 range
[5] = Initial characterization of manufactured cromolyn (particle size distribution); assay type: physicochemical
From the text: Cromolyn capsules for inhalation were manufactured by Pharmaterials, Ltd (Reading, UK). […] Therefore, there was a need to use hydrophobic excipient in the powder formulation to improve product performance and stability. Addition of hydrophobic excipient offers inherent resistance of dry powder inhalation formulations to negative effect of moisture to such formulations. Magnesium stearate was chosen as suitable hydrophobic excipient since it is commercially used in dry powder inhaler (DPI) products. […] Lactose monohydrate was additionally used as diluent for this case.

[6] = 17.1 mg single inhaled dose, mean
[7] = 34.2 mg double inhaled dose, mean
[8] = inhaled or intranasal, 17.1 mg, 17.1 mg single inhaled dose, mean
[9] = inhaled or intranasal, 34.2 mg, 34.2 mg double inhaled dose, mean

Q: For O=C(O)c1cc(=O)c2c(OCC(O)COc3cccc4oc(C(=O)O)cc(=O)c34)cccc2o1 [DSCG:lactose 100:0, disodium cromoglycate], which “Fine Particle Dose <5 μm” value [1] is on record?
A: 430 µg

Q: What about the “Fine Particle Dose <5 μm (% of initial dose)” value [1] of the same compound?
A: 9 % of initial dose

Q: And the MMAD [1]?
A: >4 μm

Q: What about the “Stages 4 to 8” value [1] of the same compound?
A: 150 µg

Q: And the “Stages 4 to 8 (% of initial dose)” value [1]?
A: 3 % of initial dose

Q: And the “Fine Particle Dose <5 μm” value [2]?
A: 2321 µg

Q: And the “Fine Particle Fraction <5 μm” value [2]?
A: 59 % of delivered dose

Q: And the “Stages 4 to 8” value [2]?
A: 2098 µg

Q: And the “Stages 4 to 8 (% of initial dose)” value [2]?
A: 42 % of initial dose

Q: What does the source list for O=C(O)c1cc(=O)c2c(OCC(O)COc3cccc4oc(C(=O)O)cc(=O)c34)cccc2o1 [cromolyn, 5,5′-(2-hydroxypropane-1,3-diyl)bis(oxy)bis(4-oxo-4H-chromene-2-carboxylic acid)]?
A: cromolyn in the impactor fractions with <3 micron size particles (NGI stage 4-MOC) [3]: 4 to 5 mg; Cl/F [4, 6]: 108532.36 mL/h; T0.5 [4, 6]: 1.75 ± 0.9 h; T0.5 ([4]; 17.1 mg single inhaled dose, mean, listed as Cromolyn): 1.75 h; Cl/F ([4]; 17.1 mg, Max): 183363.7 mL/h; T0.5 ([4]; 17.1 mg, Max): 3.7 h; T0.5 ([4]; 17.1 mg, Min): 0.6, h; Cl/F ([4]; 17.1 mg, median): 82640.18 mL/h; T0.5 ([4]; 17.1 mg, median): 1.56 h; Cl/F [4, 7]: 132178.06 mL/h; T0.5 [4, 7]: 1.91 ± 0.7 h; T0.5 ([4]; 34.2 mg double inhaled dose, mean, listed as Cromolyn): 1.91 h; Cl/F ([4]; 34.2 mg, median): 130382.20 mL/h; T0.5 ([4]; 34.2 mg, median): 1.80 h; Tmax [4, 8]: 22.8 min; Vd/F [4, 8]: 137 L; AUC(0-inf) ([4]; inhaled or intranasal, 17.1 mg, 17.1 mg single inhaled dose, mean, read-out: AUC0-inf): 196 ± 97.3 ng·h/mL; Cmax ([4]; inhaled or intranasal, 17.1 mg, 17.1 mg single inhaled dose, mean, read-out: Cmax): 46.7 ng/mL; half-life ([4]; inhaled or intranasal, 17.1 mg): 36 to 222 min; AUC(0-inf) ([4]; inhaled or intranasal, 17.1 mg, single (17.1 mg) dose inhalation, range, read-out: AUC0-inf range): 93.3 to 287 ng·h/mL; Cmax ([4]; inhaled or intranasal, 17.1 mg, single dose (17.1 mg) inhalation, mean ± SD, read-out: average Cmax): 46.7 ± 33 ng/mL; Cmax ([4]; inhaled or intranasal, 17.1 mg, single dose (17.1 mg) inhalation, range, read-out: Cmax range): 14 to 133 ng/mL; Tmax [4, 9]: 22.2 min; Vd/F [4, 9]: 330 L; AUC(0-inf) ([4]; inhaled or intranasal, 34.2 mg, 34.2 mg double inhaled dose, mean, read-out: AUC0-inf): 285 ± 91.3 ng·h/mL; Cmax ([4]; inhaled or intranasal, 34.2 mg, 34.2 mg double inhaled dose, mean, read-out: Cmax): 96.8 ng/mL; AUC(0-inf) ([4]; inhaled or intranasal, 34.2 mg, double (34.2 mg) dose inhalation, range, read-out: AUC0-inf range): 155 to 443 ng·h/mL; Cmax ([4]; inhaled or intranasal, 34.2 mg, double dose (34.2 mg) inhalation, mean ± SD, read-out: average Cmax): 96.8 ± 46.2 ng/mL; Cmax ([4]; inhaled or intranasal, 34.2 mg, double dose (34.2 mg) inhalation, range, read-out: Cmax range): 36.1 to 236 ng/mL; half-life ([4]; inhaled or intranasal, double dose (34.2 mg) inhalation, range): 42 to 228 min; Tmax ([4]; inhaled, 17.1 mg, Max): 60 min; Vd/F ([4]; inhaled, 17.1 mg, Max): 144 L; AUC(0-inf) ([4]; inhaled, 17.1 mg, Max, read-out: AUC0-inf): 287 ng·h/mL; Cmax ([4]; inhaled, 17.1 mg, Max, read-out: Cmax): 133 ng/mL; Tmax ([4]; inhaled, 17.1 mg, Min): 6 min; Vd/F ([4]; inhaled, 17.1 mg, Min): 134 L; AUC(0-inf) ([4]; inhaled, 17.1 mg, Min, read-out: AUC0-inf): 93.3 ng·h/mL; Cmax ([4]; inhaled, 17.1 mg, Min, read-out: Cmax): 14 ng/mL; Tmax ([4]; inhaled, 17.1 mg, median): 15 min; Vd/F ([4]; inhaled, 17.1 mg, median): 134 L; AUC(0-inf) ([4]; inhaled, 17.1 mg, median, read-out: AUC0-inf): 207 ng·h/mL; Cmax ([4]; inhaled, 17.1 mg, median, read-out: Cmax): 36.2 ng/mL; Tmax ([4]; inhaled, 34.2 mg, median): 13.8 min; Vd/F ([4]; inhaled, 34.2 mg, median): 264 L; AUC(0-inf) ([4]; inhaled, 34.2 mg, median, read-out: AUC0-inf): 262 ng·h/mL; Cmax ([4]; inhaled, 34.2 mg, median, read-out: Cmax): 76.5 ng/mL; initial characterization of the material ([5]; manufactured cromolyn): crystalline and hygroscopic material; particle size distribution d50 ([5]; micronized cromolyn): < 5 μm; particle size distribution d90 ([5]; micronized cromolyn): < 10 μm
